For 20 molecules, IC50 results are on record in patent US12195482B1 (Arcus Biosciences, Inc., priority 2022, dated 2025).

This test concerns the target T1, recombinant human MER (Homo sapiens, UniProt Q12866).
T1 construct: purchased Invitrogen
T1 sequence (Q12866 21-999): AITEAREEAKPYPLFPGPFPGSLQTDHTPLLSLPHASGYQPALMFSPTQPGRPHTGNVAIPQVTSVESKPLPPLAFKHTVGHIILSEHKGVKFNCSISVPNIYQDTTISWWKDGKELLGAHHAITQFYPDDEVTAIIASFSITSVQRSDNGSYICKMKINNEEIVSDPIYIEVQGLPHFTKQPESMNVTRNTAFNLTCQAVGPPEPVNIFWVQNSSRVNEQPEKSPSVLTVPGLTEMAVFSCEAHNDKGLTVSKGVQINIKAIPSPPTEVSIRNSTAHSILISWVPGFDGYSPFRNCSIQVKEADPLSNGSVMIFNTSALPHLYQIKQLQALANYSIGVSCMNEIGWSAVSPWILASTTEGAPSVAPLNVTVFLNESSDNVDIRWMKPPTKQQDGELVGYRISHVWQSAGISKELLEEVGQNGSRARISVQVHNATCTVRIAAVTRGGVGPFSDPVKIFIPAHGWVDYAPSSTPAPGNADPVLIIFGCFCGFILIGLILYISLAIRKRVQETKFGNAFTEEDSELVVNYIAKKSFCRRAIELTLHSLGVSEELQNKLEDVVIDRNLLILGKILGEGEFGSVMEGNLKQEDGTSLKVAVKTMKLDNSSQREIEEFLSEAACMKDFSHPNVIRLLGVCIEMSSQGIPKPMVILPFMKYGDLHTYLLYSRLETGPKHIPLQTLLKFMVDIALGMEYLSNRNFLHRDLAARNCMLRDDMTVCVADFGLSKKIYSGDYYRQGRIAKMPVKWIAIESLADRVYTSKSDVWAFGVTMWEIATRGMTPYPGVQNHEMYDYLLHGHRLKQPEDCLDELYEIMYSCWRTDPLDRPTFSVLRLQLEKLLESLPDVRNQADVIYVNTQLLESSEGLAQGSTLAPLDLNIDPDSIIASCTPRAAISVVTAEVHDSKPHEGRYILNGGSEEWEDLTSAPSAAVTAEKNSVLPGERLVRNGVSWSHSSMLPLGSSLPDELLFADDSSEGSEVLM
Description: Biochemical potency, HTRF KinEASE-TK kinase assay. The settings on record: 1 nM MER, 700 μM ATP. Put shortly: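 Compounds preincubated 1 h at RT with enzyme in 50 mM HEPES pH 7.4, 10 mM MgCl2, 0.01% BSA, 1 mM DTT; reactions then ran 2 h at RT with 5 nM AXL or 1 nM TYRO3/MER, 800 nM TK substrate-biotin, 700 μM ATP, 1% DMSO. HTRF 665/620 ratio read; percent activity calculated.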
For orientation: In TR-FRET formats the signal depends on donor and acceptor labels being close together.
In the case of `CO[C@H]1C[C@@H](N[C@H]2CCc3ccc(-c4cnc5[nH]nc(-c6ccc(-c7ncccc7C)cc6)c5c4)cc3CC2)C1` [Example 131, (7S)-2-{3-[4-(3-Methylpyridin-2-yl)phenyl]-1H-pyrazolo[3,4-b]pyridin-5-yl}-N-[cis-3-methoxycyclobutyl]-6,7,8,9-tetrahydro-5H-benzo[7]annulen-7-amine], the IC50 – broadly, the concentration at which inhibition is half-maximal – was below 100 nM.
As to `C[C@H]1COC(=O)N1c1cccnc1-c1ccc(-c2n[nH]c3ncc(-c4ccc5c(c4)CC[C@@H](N4C6COCC4C6)CC5)cc23)cc1` [Example 125, (4S)-4-Methyl-3-[2-(4-{5-[(7S)-7-{3-oxa-6-azabicyclo[3.1.1]heptan-6-yl}-6,7,8,9-tetrahydro-5H-benzo[7]annulen-2-yl]-1H-pyrazolo[3,4-b]pyridin-3-yl}phenyl)pyridin-3-yl]-1,3-oxazolidin-2-one], the IC50 is below 100 nM.
As for `FC(F)Oc1cccnc1-c1ccc(-c2n[nH]c3ncc(-c4ccc5c(c4)CC[C@@H](N4C6COCC4C6)CC5)cc23)cc1` [Example 99, 6-[(7S)-2-(3-{4-[3-(Difluoromethoxy)pyridin-2-yl]phenyl}-1H-pyrazolo[3,4-b]pyridin-5-yl)-6,7,8,9-tetrahydro-5H-benzo[7]annulen-7-yl]-3-oxa-6-azabicyclo[3.1.1]heptane], the IC50 lay in the range of 100 to 1000 nM.
To `Cc1nn(C)nc1-c1ccc(-c2n[nH]c3ncc(-c4ccc5c(c4)CC[C@@H](N4C6COCC4C6)CC5)cc23)cc1` [Example 14, 6-[(7S)-2-{3-[4-(2,5-Dimethyl-2H-1,2,3-triazol-4-yl)phenyl]-1H-pyrazolo[3,4-b]pyridin-5-yl}-6,7,8,9-tetrahydro-5H-benzo[7]annulen-7-yl]-3-oxa-6-azabicyclo[3.1.1]heptane] belongs 100 to 1000 nM.
For `CS(=O)(=O)c1cccnc1-c1ccc(-c2c[nH]c3ncc(-c4ccc5c(c4)CC[C@@H](N4C6COCC4C6)CC5)cc23)cc1` [Example 102, 6-[(7S)-2-{3-[4-(3-Methanesulfonylpyridin-2-yl)phenyl]-1H-pyrrolo[2,3-b]pyridin-5-yl}-6,7,8,9-tetrahydro-5H-benzo[7]annulen-7-yl]-3-oxa-6-azabicyclo[3.1.1]heptane] the value was 100 to 1000 nM; for `Cc1cccnc1-c1ccc(-c2c[nH]c3ncc(-c4ccc5c(c4)CC[C@@H](N[C@H]4CCCOC4)CC5)cc23)cc1` [Example 186, (3S)—N-[(7S)-2-{3-[4-(3-Methylpyridin-2-yl)phenyl]-1H-pyrrolo[2,3-b]pyridin-5-yl}-6,7,8,9-tetrahydro-5H-benzo[7]annulen-7-yl]oxan-3-amine], below 100 nM.
On to `Cc1ccc(C)c(-c2ccc(-c3n[nH]c4ncc(-c5ccc6c(c5)CC[C@@H](N5C7COCC5C7)CC6)cc34)cc2)n1` [Example 120, 6-[(7S)-2-{3-[4-(3,6-Dimethylpyridin-2-yl)phenyl]-1H-pyrazolo[3,4-b]pyridin-5-yl}-6,7,8,9-tetrahydro-5H-benzo[7]annulen-7-yl]-3-oxa-6-azabicyclo[3.1.1]heptane], for which the IC50 is 100 to 1000 nM.
For `Cc1ncc(C)c(-c2ccc(-c3c[nH]c4ncc(-c5ccc6c(c5)CC[C@@H](N5C7COCC5C7)CC6)cc34)cc2)n1` [Example 123, 6-[(7S)-2-{3-[4-(2,5-Dimethylpyrimidin-4-yl)phenyl]-1H-pyrrolo[2,3-b]pyridin-5-yl}-6,7,8,9-tetrahydro-5H-benzo[7]annulen-7-yl]-3-oxa-6-azabicyclo[3.1.1]heptane] the value was below 100 nM; for `CN(C(=O)C1CC1)c1cccnc1-c1ccc(-c2n[nH]c3ncc(-c4ccc5c(c4)CC[C@@H](N4C6COCC4C6)CC5)cc23)cc1` [Example 128, N-Methyl-N-[2-(4-{5-[(7S)-7-{3-oxa-6-azabicyclo[3.1.1]heptan-6-yl}-6,7,8,9-tetrahydro-5H-benzo[7]annulen-2-yl]-1H-pyrazolo[3,4-b]pyridin-3-yl}phenyl)pyridin-3-yl]cyclopropanecarboxamide], 100 to 1000 nM; for `c1cncc(-c2ccc(-c3c[nH]c4ncc(-c5ccc6c(c5)CC[C@@H](N5C7COCC5C7)CC6)cc34)cc2)c1` [Example 158, 6-[(7S)-2-{3-[4-(Pyridin-3-yl)phenyl]-1H-pyrrolo[2,3-b]pyridin-5-yl}-6,7,8,9-tetrahydro-5H-benzo[7]annulen-7-yl]-3-oxa-6-azabicyclo[3.1.1]heptane], above 1000 nM.
To `FC(F)(F)Oc1cccnc1-c1ccc(-c2c[nH]c3ncc(-c4ccc5c(c4)CC[C@@H](N4C6COCC4C6)CC5)cc23)cc1` [Example 103, 6-[(7S)-2-(3-{4-[3-(Trifluoromethoxy)pyridin-2-yl]phenyl}-1H-pyrrolo[2,3-b]pyridin-5-yl)-6,7,8,9-tetrahydro-5H-benzo[7]annulen-7-yl]-3-oxa-6-azabicyclo[3.1.1]heptane] belongs above 1000 nM; to `CC(C)(O)c1cccnc1-c1ccc(-c2n[nH]c3ncc(-c4ccc5c(c4)CC[C@@H](N4C6COCC4C6)CC5)cc23)cc1` [Example 10, 2-[2-(4-{5-[(7S)-7-{3-Oxa-6-azabicyclo[3.1.1]heptan-6-yl}-6,7,8,9-tetrahydro-5H-benzo[7]annulen-2-yl]-1H-pyrazolo[3,4-b]pyridin-3-yl}phenyl)pyridin-3-yl]propan-2-ol], 100 to 1000 nM; to `COc1cccnc1-c1ccc(-c2n[nH]c3ncc(-c4ccc5c(c4)CC[C@@H](N4C6COCC4C6)CC5)cc23)cc1` [Example 166, 6-[(7S)-2-{3-[4-(3-Methoxypyridin-2-yl)phenyl]-1H-pyrazolo[3,4-b]pyridin-5-yl}-6,7,8,9-tetrahydro-5H-benzo[7]annulen-7-yl]-3-oxa-6-azabicyclo[3.1.1]heptane], 100 to 1000 nM.
On to `O=C(c1cccnc1-c1ccc(-c2n[nH]c3ncc(-c4ccc5c(c4)CC[C@@H](N4C6COCC4C6)CC5)cc23)cc1)N1CCCC1` [Example 4, 6-[(7S)-2-(3-{4-[3-(Pyrrolidine-1-carbonyl)pyridin-2-yl]phenyl}-1H-pyrazolo[3,4-b]pyridin-5-yl)-6,7,8,9-tetrahydro-5H-benzo[7]annulen-7-yl]-3-oxa-6-azabicyclo[3.1.1]heptane], for which the IC50 lay within 100 to 1000 nM.
With `Cc1ccnnc1-c1ccc(-c2n[nH]c3ncc(-c4ccc5c(c4)CC[C@@H](N4C6COCC4C6)CC5)cc23)cc1` [Example 176, 6-[(7S)-2-{3-[4-(4-Methylpyridazin-3-yl)phenyl]-1H-pyrazolo[3,4-b]pyridin-5-yl}-6,7,8,9-tetrahydro-5H-benzo[7]annulen-7-yl]-3-oxa-6-azabicyclo[3.1.1]heptane], the IC50 was below 100 nM.
On to `COC[C@H]1CCN([C@H]2CCc3ccc(-c4cnc5[nH]nc(-c6ccc(-c7ncccc7C)cc6)c5c4)cc3CC2)C1` [Example 132, 2-(4-{5-[(7S)-7-[(3S)-3-(Methoxymethyl)pyrrolidin-1-yl]-6,7,8,9-tetrahydro-5H-benzo[7]annulen-2-yl]-1H-pyrazolo[3,4-b]pyridin-3-yl}phenyl)-3-methylpyridine], for which the IC50 is below 100 nM.
For `c1ccc(-c2ccc(-c3c[nH]c4ncc(-c5ccc6c(c5)CC[C@@H](N[C@H]5CCCOC5)CC6)cc34)cc2)nc1` [Example 32, (3S)—N-[(7S)-3-[3-(4-Pyridin-2-ylphenyl)-1H-pyrrolo[2,3-b]pyridin-5-yl]-6,7,8,9-tetrahydro-5H-benzo[7]annulen-7-yl]oxan-3-amine] the value was 100 to 1000 nM.
`CC(C)(O)c1cccnc1-c1ccc(-c2c[nH]c3ncc(-c4ccc5c(c4)CC[C@@H](N4C6COCC4C6)CC5)cc23)cc1` [Example 95, 2-[2-(4-{5-[(7S)-7-{3-Oxa-6-azabicyclo[3.1.1]heptan-6-yl}-6,7,8,9-tetrahydro-5H-benzo[7]annulen-2-yl]-1H-pyrrolo[2,3-b]pyridin-3-yl}phenyl)pyridin-3-yl]propan-2-ol]: the half-maximal inhibitory concentration (IC50) was below 100 nM.
As for `CC(C)(O)c1cccnc1-c1ccc(-c2n[nH]c3ncc(-c4ccc5c(c4)CC[C@@H](N4C6COCC4C6)CC5)cc23)nc1` [Example 100, 2-(6′-{5-[(7S)-7-{3-Oxa-6-azabicyclo[3.1.1]heptan-6-yl}-6,7,8,9-tetrahydro-5H-benzo[7]annulen-2-yl]-1H-pyrazolo[3,4-b]pyridin-3-yl}-[2,3′-bipyridin]-3-yl)propan-2-ol], the IC50 is above 1000 nM.
On to `OC1(c2cccnc2-c2ccc(-c3c[nH]c4ncc(-c5ccc6c(c5)CC[C@@H](N5C7COCC5C7)CC6)cc34)cc2)CCC1` [Example 22, 1-[2-[4-[5-[(7S)-7-(3-Oxa-6-azabicyclo[3.1.1]heptan-6-yl)-6,7,8,9-tetrahydro-5H-benzo[7]annulen-3-yl]-1H-pyrrolo[2,3-b]pyridin-3-yl]phenyl]pyridin-3-yl]cyclobutan-1-ol], for which the IC50 was below 100 nM.
